From patent US7812022B2 (GlaxoSmithKline LLC, priority 2004, dated 2010)

Experiments:
[1] = tested on: BT474 and HN5 tumor cell lines; experiment: Celltiter Glo growth inhibition assay (cellular Method B); assay type: cell-based; details: Homo sapiens, BT-474, 72 h, 3 days, read-out: Activity (Method): growth inhibition IC50 class
Method: (§1) Human breast tumor cells (BT474) were cultured in RPMI, (Invitrogen, 22400) containing 10% fetal bovine serum (FBS). Human head and neck tumor cells (HN5) were cultured in low glucose DMEM (Invitrogen, 12320) containing 10% FBS. Human colon tumor cells (Colo205) were cultured in DMEM (Invitrogen, 10564) containing 10% FBS. All cell lines were maintained at 37° C. in a humidified 5% CO2, 95% air incubator. Cells were harvested using trypsin/EDTA, counted using a haemocytometer, and plated in 30 microliters of the appropriate media described above, at the following densities, in a half area, black-walled, 96-well tissue culture plate (Corning 3882): BT474 3,000 cells/well, HN5 500 cells/well and Colo205 cells, 3,000 cells/well. The next day, compounds were diluted in DMEM containing […] gentamicin, from 10 mM stock solutions in DMSO. 30 microliters/well of these dilutions were added to the 30 microliters/well of media currently on the cell plates. Medium containing 0.6% DMSO was added to control wells. The final concentration of DMSO in all wells was 0.3%. Cells were incubated at 37° C., 5% CO2 for 3 days. Cell biomass was estimated using Celltiter Glo (Promega G7571). Briefly, plates were removed from the incubator and allowed to equilibrate to rt for 30 minutes. 60 microliters of Celltiter Glo reagent were added to each well of the treated cells and plates were shaken on an orbital plate shaker for 2 min. Plates were incubated without shaking for 30 more min and read in a luminometer with an integration time of 0.5 seconds per well. Percent inhibition of cell growth was calculated relative to vehicle treated control wells. Concentration of compound that inhibits 50% of vehicle control cell growth (IC50) was interpolated using nonlinear regression (Levenberg-Marquardt) and the equation, y=Vmax*(1−(x/(K+x)))+Y2, where “K” was equal to the IC50.

Colo205 tumor cell lines [2] = experiment: Celltiter Glo growth inhibition assay (cellular Method B), Colo205; assay type: cell-based; details: Homo sapiens, COLO 205, 72 h, 3 days, read-out: Activity (Method): growth inhibition IC50 class
Method: as §1

ErbB2 or EGFR = biological target: T1, ErbB2 or EGFR; experiment: ErbB family substrate phosphorylation enzyme assay (HTRF), Method A or Method B; assay type: biochemical
T1 construct: enzymes purified from a baculovirus expression system; Reagent production was conducted essentially as described in Brignola, P. S., et al, (2002) J. Biol. Chem. 277(2): 1576-1585
How it was run: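 Baculovirus-expressed EGFR or ErbB2 (0.8 or 10 nM in enzyme mix) phosphorylates biotinylated Peptide C with 20 µM ATP and 0.8 µM peptide (substrate-mix levels), MnCl2, pH 7.5. Reaction ran 90 min at 20 °C with EDTA stop and HTRF anti-phosphotyrosine read. Method A: enzyme added last; Method B: 1 h enzyme–compound preincubation.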

[3] = tested on: BT474 and HN5 tumor cell lines; experiment: Methylene blue growth inhibition assay (cellular Method A); assay type: cell-based, Human; details: Homo sapiens, BT-474, 72 h, 3 days, read-out: Activity (Method): growth inhibition IC50 class
How it was run: (§2)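 Colo205, BT474 and HN5 cells in DMEM/10% FBS (BT474 10,000, HN5 3,000 cells/well) treated next day with compound in DMEM, 0.3% final DMSO, for 3 days at 37° C. Biomass stained with methylene blue, solubilized, read at OD 620; IC50 interpolated by nonlinear regression from % inhibition versus vehicle.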

Colo205 tumor cell lines [4] = experiment: Methylene blue growth inhibition assay (cellular Method A), Colo205; assay type: cell-based, Human; details: Homo sapiens, COLO 205, 72 h, 3 days, read-out: Activity (Method): growth inhibition IC50 class
How it was run: as §2

[5] = Method B: enzyme mix pre-incubated with compound 1 hour at 20° C., started with substrate mix
[6] = Method A: substrate mix added first, reaction started with enzyme mix

| SMILES | IC50 [1] [nM] | IC50 (Colo205 tumor cell lines [2]) [nM] | IC50 [3] [nM] | IC50 (Colo205 tumor cell lines [4]) [nM] | Activity (Method): pIC50 class against ErbB2 or EGFR (ErbB2 or EGFR; [5]) | Activity (Method): pIC50 class against ErbB2 or EGFR (ErbB2 or EGFR; [6]) |
| --- | --- | --- | --- | --- | --- | --- |
| CN(C)CCOc1cccc(Nc2nccc(-c3c(-c4cccc(NC(=O)c5c(F)cccc5F)c4)nn4cc(F)ccc34)n2)c1 [Example 171, N-[3-(3-{2-[(3-{[2-(Dimethylamino)ethyl]oxy}phenyl)amino]-4-pyrimidinyl}-6-fluoropyrazolo[1,5-a]pyridin-2-yl)phenyl]-2,6-difluorobenzamide] | < 100 | > 1000 |  |  | +++ (B) (at least one pIC50 measurement of greater than 7 against either ErbB2 or EGFR) |  |
| CN(C)c1cccc2c(-c3ccnc(Nc4cccc(F)c4)n3)c(-c3cccc(NC(=O)c4c(F)cccc4F)c3)nn12.O=C(O)C(F)(F)F [Example 175, N-[3-(7-(Dimethylamino)-3-{2-[(3-fluorophenyl)amino]-4-pyrimidinyl}pyrazolo[1,5-a]pyridin-2-yl)phenyl]-2,6-difluorobenzamide trifluoroacetate] | 100 to 1000 | > 1000 |  |  | +++ (B) (at least one pIC50 measurement of greater than 7 against either ErbB2 or EGFR) |  |
| COc1ccc(Nc2nccc(-c3c(-c4cccc(NC(=O)c5c(F)cccc5F)c4)nn4ccccc34)n2)cc1OCCCN(C)C.O=CO [Example 165, N-{3-[3-(2-{[3-{[3-(Dimethylamino)propyl]oxy}-4-(methyloxy)-phenyl]amino}-4-pyrimidinyl)pyrazolo[1,5-a]pyridin-2-yl]phenyl}-2,6-difluorobenzamide formic acid salt] | < 100 | > 1000 |  |  | +++ (B) (at least one pIC50 measurement of greater than 7 against either ErbB2 or EGFR) |  |
| CS(=O)(=O)Cc1ccc(Nc2nccc(-c3c(-c4cccc(NC(=O)c5c(F)cccc5F)c4)nn4ccccc34)n2)cc1 [Example 116, 2,6-Difluoro-N-(3-{3-[2-({4-[(methylsulfonyl)methyl]-phenyl}amino)-4-pyrimidinyl]pyrazolo[1,5-a]pyridin-2-yl}phenyl)benzamide] |  |  | < 100 | 100 to 1000 | +++ (B) (at least one pIC50 measurement of greater than 7 against either ErbB2 or EGFR) |  |
| COc1ccc(Nc2nccc(-c3c(-c4cccc(NC(=O)c5c(F)cccc5F)c4)nn4ccccc34)n2)cc1OCCN(C)C [Example 167, N-{3-[3-(2-{[3-{[2-(Dimethylamino)ethyl]oxy}-4-(methyloxy)phenyl]amino}-4-pyrimidinyl)pyrazolo[1,5-a]pyridin-2-yl]phenyl}-2,6-difluorobenzamide] |  |  | < 100 | 100 to 1000 | +++ (B) (at least one pIC50 measurement of greater than 7 against either ErbB2 or EGFR) |  |
| COc1ccc(Nc2nccc(-c3c(-c4cccc(NC(=O)c5c(F)cccc5F)c4)nn4ccccc34)n2)cc1O [Example 166, 2,6-Difluoro-N-{3-[3-(2-{[3-hydroxy-4-(methyloxy)phenyl]amino}-4-pyrimidinyl)pyrazolo[1,5-a]pyridin-2-yl]phenyl}benzamide] |  |  | < 100 | > 1000 | +++ (B) (at least one pIC50 measurement of greater than 7 against either ErbB2 or EGFR) |  |
| Cc1ccc(F)cc1C(=O)Nc1cccc(-c2nn3ccccc3c2-c2ccnc(Nc3cccc(F)c3)n2)c1 [Example 83, 5-Fluoro-N-[3-(3-{2-[(3-fluorophenyl)amino]-4-pyrimidinyl}pyrazolo[1,5-a]pyridin-2-yl)phenyl]-2-methylbenzamide] |  |  | 100 to 1000 | > 1000 |  | ++ (A) (at least one pIC50 measurement greater than 6 against either ErbB2 or EGFR but no measurement greater than pIC50 of 7) |
| O=C(Nc1cccc(-c2nn3ccccc3c2-c2ccnc(Nc3ccccc3)n2)c1)c1ccc(Cl)cc1 [Example 142, 4-Chloro-N-(3-{3-[2-(phenylamino)-4-pyrimidinyl]pyrazolo[1,5-a]pyridin-2-yl}phenyl)benzamide] |  |  | > 1000 | > 1000 |  | ++ (A) (at least one pIC50 measurement greater than 6 against either ErbB2 or EGFR but no measurement greater than pIC50 of 7) |

Second part, led by results:

| IC50 [1] [nM] | IC50 (Colo205 tumor cell lines [2]) [nM] | IC50 [3] [nM] | IC50 (Colo205 tumor cell lines [4]) [nM] | SMILES | Activity (Method): pIC50 class against ErbB2 or EGFR (ErbB2 or EGFR; [5]) | Activity (Method): pIC50 class against ErbB2 or EGFR (ErbB2 or EGFR; [6]) |
| --- | --- | --- | --- | --- | --- | --- |
| < 100 | 100 to 1000 |  |  | CN(C)CCOc1cccc(Nc2nccc(-c3c(-c4ccc(F)c(NC(=O)c5c(F)cccc5F)c4)nn4ccccc34)n2)c1 [Example 182, N-[5-(3-{2-[(3-{[2-(Dimethylamino)ethyl]oxy}phenyl)amino]-4-pyrimidinyl}pyrazolo[1,5-a]pyridin-2-yl)-2-fluorophenyl]-2,6-difluorobenzamide] | +++ (B) (at least one pIC50 measurement of greater than 7 against either ErbB2 or EGFR) |  |
| 100 to 1000 | > 1000 |  |  | CN(C)CCOc1cccc(Nc2nccc(-c3c(-c4cccc(NC(=O)c5c(F)cccc5F)c4)nn4cc(C(F)(F)F)ccc34)n2)c1 [Example 194, N-{3-[3-{2-[(3-{[2-(Dimethylamino)ethyl]oxy}phenyl)amino]-4-pyrimidinyl}-6-(trifluoromethyl)pyrazolo[1,5-a]pyridin-2-yl]phenyl}-2,6-difluorobenzamide] | +++ (B) (at least one pIC50 measurement of greater than 7 against either ErbB2 or EGFR) |  |
| < 100 | > 1000 |  |  | NCc1cccc(Nc2nccc(-c3c(-c4cccc(NC(=O)c5cc(F)ccc5F)c4)nn4ccccc34)n2)c1 [Example 184, N-{3-[3-(2-{[3-(Aminomethyl)phenyl]amino}-4-pyrimidinyl)pyrazolo[1,5-a]pyridin-2-yl]phenyl}-2,5-difluorobenzamide] | +++ B) (at least one pIC50 measurement of greater than 7 against either ErbB2 or EGFR) |  |
| > 1000 | > 1000 |  |  | O=C(Nc1cccc(-c2nn3cc(C(F)(F)F)ccc3c2-c2nc(Nc3cccc(F)c3)ncc2F)c1)c1c(F)cccc1F [Example 193, 2,6-Difluoro-N-{3-[3-{5-fluoro-2-[(3-fluorophenyl)amino]-4-pyrimidinyl}-6-(trifluoromethyl)pyrazolo[1,5-a]pyridin-2-yl]phenyl}benzamide] | + (B) (no pIC50 measurement greater than 6 against either ErbB2 or EGFR) |  |
| < 100 | 100 to 1000 |  |  | CN1CCc2ccc(Nc3ncc(F)c(-c4c(-c5cccc(NC(=O)c6c(F)cccc6F)c5)nn5ccccc45)n3)cc2C1 [Example 203, 2,6-Difluoro-N-[3-(3-{5-fluoro-2-[(2-methyl-1,2,3,4-tetrahydro-7-isoquinolinyl)amino]-4-pyrimidinyl}pyrazolo[1,5-a]pyridin-2-yl)phenyl]benzamide] | +++ (B) (at least one pIC50 measurement of greater than 7 against either ErbB2 or EGFR) |  |
|  | 100 to 1000 | < 100 |  | Cc1ncoc1-c1cccc(Nc2nccc(-c3c(-c4cccc(NC(=O)c5c(F)cccc5F)c4)nn4ccccc34)n2)c1 [Example 178, 2,6-Difluoro-N-{3-[3-(2-{[3-(4-methyl-1,3-oxazol-5-yl)phenyl]amino}-4-pyrimidinyl)pyrazolo[1,5-a]pyridin-2-yl]phenyl}benzamide] | +++ (B) (at least one pIC50 measurement of greater than 7 against either ErbB2 or EGFR) |  |
